Assay results taken from patent US6551591B1, “Antibiotics from microbispora” (priority 2001, dated 2003).
≈ marks a conversion by molar mass, not a printed value. Like-named read-outs stand apart in the source and are kept apart here.

How the values were obtained:
[1] = tested on: MRSA (methicillin resistance Staphylococcus aureus) strains; assay: MIC50/MIC90 against a collection of genotypically characterized S. aureus isolates; assay type: cell-based
Procedure: (§1) The antibacterial activity of MF-BA-1768α1 and MF-BA-1768β1 were determined against a spectrum of bacterial strains using a broth microdilution assay performed as recommended by the NCCLS (NCCLS Document M7-A4, Vol 17 No.2). With the exception of Streptococci spp. and H. influenzae, the assay was performed in Cation Adjusted Mueller-Hinton Broth (CAMHB). For the Streptococci spp., CAMHB+2-5% Laked Horse Blood (REMEL) was used. For H. influenzae, Haemophilus Test Medium (REMEL) containing 2% Fildes Enrichment was used. The final bacterial inoculum was 5×10^5 CFU/ml in a final assay volume of 100 μl. Microtiter plates containing the test samples and the respective bacterial inoculum were incubated for 24 hours at 35° C. with the exception of E. coli plates, which were incubated for 20 hours at 35° C. Upon completion of incubation, the plates were read using a microtiter plate reader (Molecular Devices) at 650 nm as well as by visual observation using a microtiter plate reading mirror. […]
(§2) The antibacterial activity of MF-BA-1768β1 was further evaluated side-by-side with 9 reference antibiotics against a collection of genotypically well-characterized isolates of Staphylococcus aureus. These included 64 MRSA (methicillin resistance Staphylococcus aureus) strains and 19 MSSA (methicillin sensitive Staphylococcus aureus) strains representing 57 staphylococcal protein A genotypes and 22 coagulase A genotypes. The most common protein A genotypes found in the USA were represented by more than one isolate.

[2] = tested on: MSSA (methicillin sensitive Staphylococcus aureus) strains; assay: as above; assay type: cell-based
Procedure: as §1, §2

[3] = Staphylococcus aureus, MRSA (64 strains), read-out: MIC50
[4] = Staphylococcus aureus, MRSA (64 strains), read-out: MIC90
[5] = Staphylococcus aureus, MSSA (19 strains), read-out: MIC50
[6] = Staphylococcus aureus, MSSA (19 strains), read-out: MIC90

Compound | MIC50 [1, 3] | MIC90 [1, 4] | MIC50 [2, 5] | MIC90 [2, 6] | other results
CO[C@H]1/C=C/O[C@@]2(C)Oc3c(C)c(O)c4c(O)c(c(/C=N/N5CCN(C)CC5)c(O)c4c3C2=O)NC(=O)/C(C)=C\C=C\[C@H](C)[C@H](O)[C@@H](C)[C@@H](O)[C@@H](C)[C@H](OC(C)=O)[C@@H]1C [Rifampicin] | ≤ 0.0625 µg/mL | > 32 µg/mL | ≤ 0.0625 µg/mL | ≤ 0.0625 µg/mL | –
CN[C@H](CC(C)C)C(=O)N[C@H]1C(=O)N[C@@H](CC(N)=O)C(=O)N[C@H]2C(=O)N[C@H]3C(=O)N[C@H](C(=O)N[C@H](C(=O)O)c4cc(O)cc(O)c4-c4cc3ccc4O)[C@H](O)c3ccc(c(Cl)c3)Oc3cc2cc(c3O[C@@H]2O[C@H](CO)[C@@H](O)[C@H](O)[C@H]2O[C@H]2C[C@](C)(N)[C@H](O)[C@H](C)O2)Oc2ccc(cc2Cl)[C@H]1O [Vancomycin] | – | – | – | – | MIC50 ([1]; Staphylococcus aureus, MRSA): 0.5 µg/mL (≈ 0.345 µM); MIC90 ([1]; Staphylococcus aureus, MRSA): 1 µg/mL (≈ 0.69 µM); MIC50 ([2]; Staphylococcus aureus, MSSA): 0.5 µg/mL (≈ 0.345 µM); MIC90 ([2]; Staphylococcus aureus, MSSA): 1 µg/mL (≈ 0.69 µM)
Cc1onc(-c2ccccc2)c1C(=O)N[C@@H]1C(=O)N2[C@@H]1SC(C)(C)[C@@H]2C(=O)O [Oxacillin] | 128 µg/mL (≈ 319 µM) | 512 µg/mL (≈ 1280 µM) | ≤ 1 µg/mL | 64 µg/mL (≈ 159 µM) | –
C[C@@H](O)[C@H]1C(=O)N2C(C(=O)O)=C(SCCN=CN)C[C@H]12 [Imipenem] | 8 µg/mL (≈ 26.7 µM) | 128 µg/mL (≈ 428 µM) | ≤ 0.5 µg/mL | 4 µg/mL (≈ 13.4 µM) | –
CCOc1ccc2ccccc2c1C(=O)N[C@@H]1C(=O)N2[C@@H]1SC(C)(C)[C@@H]2C(=O)O [Nafcillin] | 64 µg/mL (≈ 154 µM) | 256 µg/mL (≈ 618 µM) | ≤ 1 µg/mL | 16 µg/mL (≈ 38.6 µM) | –
CC1COc2c(N3CCN(C)CC3)c(F)cc3c(=O)c(C(=O)O)cn1c23 (stereo not drawn) [Ofloxacin] | 0.5 µg/mL (≈ 1.38 µM) | 32 µg/mL (≈ 88.6 µM) | 0.5 µg/mL (≈ 1.38 µM) | 32 µg/mL (≈ 88.6 µM) | –
Gentamicin | – | – | – | – | MIC50 ([1]; MRSA (64 strains)): 1 µg/mL; MIC90 ([1]; MRSA (64 strains)): >32 µg/mL; MIC50 ([2]; MSSA (19 strains)): 0.5 µg/mL; MIC90 ([2]; MSSA (19 strains)): 32 µg/mL
CN(C)[C@@H]1C(O)=C(C(N)=O)C(=O)[C@@]2(O)C(O)=C3C(=O)c4c(O)cccc4[C@@](C)(O)[C@H]3C[C@@H]12 [Tetracycline] | 0.25 µg/mL (≈ 0.563 µM) | > 32 µg/mL | 0.25 µg/mL (≈ 0.563 µM) | 32 µg/mL (≈ 72 µM) | –
CO/N=C(\C(=O)N[C@@H]1C(=O)N2C(C(=O)O)=C(COC(C)=O)CS[C@H]12)c1csc(N)n1 [Cefotaxime] | 512 µg/mL (≈ 1120 µM) | > 512 µg/mL | 2 µg/mL (≈ 4.39 µM) | 256 µg/mL (≈ 562 µM) | –
